Here are results for three molecules from patent US7011948B2, “Detection of ligand-antiligand complex formation by electromagnetically detectable bulk property measurement” (MDS Sciex, priority 2002, dated 2006).

pKd: −log10 of the molar value. Entries after “also recorded” stand apart in the source; their conditions may differ. Like-named read-outs stand apart in the source and are kept apart here.

One assay concerns the target T1, Ribonuclease A (RNase A) (Bos taurus, UniProt P61823).
T1 construct: purchased Sigma (St. Louis, Mo.) R5503
T1 sequence (P61823 27-150): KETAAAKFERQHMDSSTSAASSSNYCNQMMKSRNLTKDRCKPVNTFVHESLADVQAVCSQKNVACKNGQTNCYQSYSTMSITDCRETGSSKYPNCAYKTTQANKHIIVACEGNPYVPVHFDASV
Nature of the assay: Multipole Coupling Spectroscopy (MCS) binding titration of CMP ligands with RNase A. Conditions: for binding strength to RNase A in words: summary of ITC and MCS results. The source says:
Given the equation εtot=α+βL0+γg(A0,L0,KD), it can be seen that εtot is a function of L0 and KD (F(L0,KD)). εtot is a measured value and L0 is known. If KD is fixed, εtot can be predicted from L0. Then, KD can be adjusted until the predicted and measured values of εtot are as close as possible according to a nonlinear least squares analysis defined as follows: {(^1L0,^1εtot)|i=1, 2, . . . n} measurements find KD such that • Σ[^1εtot−F(^iLO,KD)]^2 is a minimum.
This formula defines the objective function for this nonlinear least squares problem. The problem is called a least squares problem because the objective function is the sum of the squares of the residuals (differences) between the measurements and the model predictions. The solution is the value of KD that minimizes the objective function. FIG. 7 depicts a plot showing an example of this objective function. There are many ways to minimize the objective function. Any standard function optimization algorithm, such as the steepest descent algorithm, can be used. Some objective function minimization methods take advantage of the particular structure of this objective function, for example the conjugate gradient method and the Levenberg-Marquardt method, and their use may be preferred in many instances. In this way, the strength of the ligand/antiligand bond can be quantified.
Materials. Ribonuclease A, (RNase A, catalogue # R5503)), cytidine 2′-monophosphate free acid (2′-CMP, catalogue # C7137), cytidine 3′-monophosphate free acid (3′-CMP, catalogue # C1133), cytidine 5′-monophosphate free acid (5′-CMP, catalogue # C1131), sodium chloride (catalogue # S7653), magnesium chloride (catalogue # M2670), Bis-Tris free base (catalogue # B7535), and Bis-Tris hydrochloride salt (catalogue # B6032) were purchased from Sigma (St. Louis, Mo.). The surfactant NP-40 (catalogue # 492015) was purchased from Calbiochem (San Diego, Calif.). These reagents were used without further purification. All solutions were prepared using milliQ water. These experiments were performed in a pH 6.0 150 mM BIS-TRIS buffer containing 10 mM sodium chloride, 10 mM magnesium chloride, and 0.005% v/v NP-40. Preparation of Sample Solutions. The protein solution was prepared by dissolving RNase A in the Bis-Tris buffer to give a final concentration of 1 mM protein; no subsequent dialysis was performed. The ligand solutions were prepared by dissolving 2′-CMP, 3′-CMP or 5′-CMP in the 1 mM RNase A solution to give a final concentration of 4 mM ligand. A series of samples which formed the basis of the ligand binding curve were prepared by mixing various ratios of the above two solutions as outlined in Table 1. Multipole Coupling Spectroscopy (MCS). […] The flow cell (a polyimide tube with an 0.0285″ I.D. and an 0.0305″ O.D. from HV Technologies, Trenton, Ga.) was mounted on the top of the coaxial resonating detector such that only the wall of the tubing separated the detector and the fluidic sample. The AFM was used to draw the fluidic samples into the detection region of the flow cell. The network analyzer settings used were S11 reflection, log magnitude, linear frequency sweep in stepped mode, 401 points, IF bandwidth of 30 Hz, power of −5 dBm, and no cable calibration was applied.
To set up the instrument to measure the data of a binding titration, the protein solution was first introduced to the flow cell of the coaxial resonating fixture and the fixture was coupled by adjusting the size of the gap until the desired reflection was achieved (approximately −30 dBm). The co-axial resonator has a sliding mechanism composed of a single dimension translation stage and a mechanical motor (Picomotor Driver from New Focus Inc., San Jose, Calif.) to adjust the gap size separating the pieces of coax such that the desired MCS reflection is achieved. Each of the remaining fluidic samples described in Table 1, below, were sequentially measured. […]

The target in the next assay is T2, RNase A (Bos taurus, UniProt P61823).
T2 construct: purchased Sigma
T2 sequence (P61823 27-150): T1 sequence (P61823 27-150)
Kind of assay: Refractive index binding titration of 2′CMP with RNase A. The settings on record: 1 mM RNase; 150 mM Bis-Tris buffer pH 6; 2′CMP up to 4 mM. On the procedure:
As verification of the generality of the inventive technique in bulk property situations other than the measurements involving permittivity, an experiment was carried out by measuring refractive index as the bulk property of a test solution. The binding assay used was one of the ones shown in Example 1, namely binding of RNase A to the RNase inhibitor 2′CMP. The refractometer used to measure the refractive index of the samples was a Wyatt Technologies Optilab DSP refractometer, calibrated using sodium chloride solutions as described in the manufacturer's instructions. RNase (Sigma) was dissolved in a buffer containing 150 mM Bis-Tris, 10 mM NaCl, 10 mM MgCl2, 0.005% […], pH 6, to provide 1 mM RNase. A portion of this solution was fed into the reference cell of the refractometer, and the instrument was left standing until the readout had stabilized. The test ligand, 2′CMP, was dissolved to 4 mM in a portion of the 1 mM RNase solution, and a titration was prepared to produce the following concentrations.
Samples were then loaded into the Optilab sample cell using a syringe and measured in the following order: […]
The refractometer was zeroed using a 1 mM RNase solution. […] The refractive index change relative to the reference cell was calculated using the software and plotted against the concentration of 2′CMP.

A further assay has as its target T3, RNase (Bos taurus, UniProt P61823).
T3 sequence (P61823 27-150): T1 sequence (P61823 27-150)
Nature of the assay: Isothermal Titration Calorimetry (ITC) binding to RNase. The source says:
Table 2, below, provides the chemical structure of each of the three CMP ligands used in this experiment and a comparison of their dissociation constants (KD) binding to RNase as determined by Isothermal Titration Calorimetry (ITC) and Multipole Coupling Spectroscopy (MCS).
For orientation: In ITC the heat of successive injections is recorded.

[1] abbreviates: 27° C., 1 mM RNase A, pH 6.0 Bis-Tris buffer, 1.3 GHz, vs ligand concentration, read-out: KD from fit of absolute permittivity values (e′ real part of permittivity), FIG. 11A.
Where [2] appears, read: 27° C., 1 mM RNase A, pH 6.0 Bis-Tris buffer, vs ligand-to-protein ratio, read-out: KD from fit of change in impedance (Zi, imaginary part of impedance), FIG. 11E.
The mark [3] stands for this setting: 27° C., 1 mM RNase A, pH 6.0 Bis-Tris buffer, vs ligand-to-protein ratio, read-out: MCS KD from fit of change in permittivity (e′ real part of permittivity), FIG. 11C.
The mark [4] stands for this setting: 27° C., 1 mM RNase A, pH 6.0 Bis-Tris buffer, vs ligand-to-protein ratio.

The term pKd denotes the Kd on a negative log10 scale, so that one unit is a factor of ten. Turning to `Nc1ccn([C@@H]2O[C@H](CO)[C@@H](O)[C@H]2OP(=O)(O)O)c(=O)n1` [2′-CMP, cytidine 2′-monophosphate free acid], the pKd on Ribonuclease A (RNase A) (setting [1]) was 5.00; at Ribonuclease A (RNase A) (setting [2]), 4.96; on Ribonuclease A (RNase A) (setting [3]), 5.00; on RNase it was 5.20. The “binding strength to RNase A in words” value on Ribonuclease A (RNase A) was “relatively strong binder”. For the same molecule, the “refractive index change vs concentration plot (FIG. 12), binding detection” value at RNase A is recorded as “deviates significantly from linearity, indicating that binding has taken place”.

With `Nc1ccn([C@@H]2O[C@H](CO)[C@@H](OP(=O)(O)O)[C@H]2O)c(=O)n1` [3′-CMP, cytidine 3′-monophosphate free acid], the pKd at Ribonuclease A (RNase A) (setting [1]) was 3.89; on Ribonuclease A (RNase A) (setting [2]), 4.12; at Ribonuclease A (RNase A) (setting [3]) it was 3.89; on RNase it was 4.12. In addition, the “binding strength to RNase A in words” value on Ribonuclease A (RNase A) was “relatively weak binder”.

As for `Nc1ccn([C@@H]2O[C@H](COP(=O)(O)O)[C@@H](O)[C@H]2O)c(=O)n1` [5′-CMP, cytidine 5′-monophosphate free acid], the “KD from fit of absolute permittivity values (e′ real part of permittivity), FIG. 11A” value at Ribonuclease A (RNase A) (27° C., 1 mM RNase A, pH 6.0 Bis-Tris buffer, 1.3 GHz, vs ligand concentration) is “No suitable curve fit was achieved”. On Ribonuclease A (RNase A) (setting [4]), the “KD from fit of change in impedance (Zi, imaginary part of impedance), FIG. 11E” value is recorded as “No suitable curve fit was achieved” and the “MCS KD from fit of change in permittivity (e′ real part of permittivity), FIG. 11C” value is “No suitable curve fit was achieved; also recorded: non-binding”. Further, the “binding strength to RNase A in words” value on Ribonuclease A (RNase A) is “unmeasurably weak”. Moreover, the “ITC KD” value at RNase is “non-binding”.
